# Results as given in US4656274A, “Polyfluorinated substituted tricyclic quinoline mono and dioxo antifungal agents and process for their preparation” (Ortho Pharmaceutical Corporation, priority 1985, dated 1987).
# What was measured:
# Assay in all cases: Microbiological minimum inhibitory concentration test (agar dilution)
# Format in all cases: cell-based
# [1] = system: Microsporum gypseum ATCC 14683; settings: Nannizzia gypsea, ATCC14683, Mycophil Agar with low pH, 32° C., growth read at 24 and 48 hours and 7 days, read-out: MIC (minimal inhibitory concentration)
# Protocol: (§1) The antifungal activity of the polyfluorinated substituted quinoline mono- and dioxo compounds was determined according to the following procedure:
# (§2) MICROBIOLOGICAL MINIMUM INHIBITORY CONCENTRATION TEST
# Microsporum gypseum ATCC 14683
# (§3) Mycophil Agar with low pH
# (§4) A 0.5 mg/ml stock solution of each compound was volumetrically prepared in an appropriate solvent From this stock, 1:2 serial dilutions were prepared in sterile distilled water. Two ml aliquots of the stock and serial dilutions were added to tubes containing 18 ml of mycophil agar (46°-50° C.). Mixtures were poured into square 100×15 mm petri dishes and allowed to solidify.
# (§5) All test organisms, except Candida albicans were harvested from six day mycophil agar slants. Candida albicans was diluted from a frozen stock culture. Inocula were diluted with sterile saline to contain approximately 1×10^8 CFUs per ml. Plate counts were performed on 1 ml of all inocula.
# (§6) Each plate and appropriate solvent and unadulterated agar growth control was inoculated in duplicate with the inocula prepared above using a Steer's Replicator method.
# (§7) Plates were then incubated at 32° C. Observations for growth were made at 24 and 48 hours and 7 days.
# (§8) These MIC data are found in Table I.
# [2] = system: Trichophyton mentagrophytes ATCC 22839; settings: ATCC22839, Mycophil Agar with low pH, 32° C., growth read at 24 and 48 hours and 7 days, read-out: MIC (minimal inhibitory concentration)
# Protocol: as §1, §2
# Trichophyton mentagrophytes ATCC 22839
# as §3, §4, §5, §6, §7, §8
# [3] = system: Trichophyton rubrum ATCC 10218; settings: ATCC10218, Mycophil Agar with low pH, 32° C., growth read at 24 and 48 hours and 7 days, read-out: MIC (minimal inhibitory concentration)
# Protocol: as §1, §2
# Trichophyton rubrum ATCC 10218
# as §3, §4, §5, §6, §7, §8
# [4] = system: Microsporum canis JJP #143; settings: Mycophil Agar with low pH, 32° C., growth read at 24 and 48 hours and 7 days, read-out: MIC (minimal inhibitory concentration)
# Protocol: as §1, §2
# Microsporum canis JJP #143
# as §3, §4, §5, §6, §7, §8
# [5] = system: Epidermophyton floccosum ATCC 15693; settings: ATCC15693, Mycophil Agar with low pH, 32° C., growth read at 24 and 48 hours and 7 days, read-out: MIC (minimal inhibitory concentration)
# Protocol: as §1, §2
# Epidermophyton floccosum ATCC 15693
# as §3, §4, §5, §6, §7, §8
# [6] = system: Candida albicans ATCC 10231; settings: ATCC10231, Mycophil Agar with low pH, 32° C., growth read at 24 and 48 hours and 7 days, read-out: MIC (minimal inhibitory concentration)
# Protocol: as §1, §2
# Candida albicans ATCC 10231
# as §3, §4, §5, §6, §7, §8
SMILES,MIC [1],MIC [2],MIC [3],MIC [4],MIC [5],MIC [6]
"Cn1c(=O)c2cc3c(F)c(F)c(F)c(F)c3nc2n(C)c1=O [I, 5,6,7,8-Tetrafluoro-1,3-dimethylpyrimidinol[6,5-b]quinolin-2,4-dione]",4.6 µg/mL,25 µg/mL,1.6 µg/mL,25 µg/mL,0.39 µg/mL,50 µg/mL
"CC1(C)CC(=O)c2cc3c(F)c(F)c(F)c(F)c3nc2C1 [II, 5,6,7,8-Tetrafluoro-2,2-dimethylbenzo[2,1-b]quinolin-4-one]",9.4 µg/mL,6.2 µg/mL,6.2 µg/mL,25 µg/mL,1.5 µg/mL,50 µg/mL
